Experimental data: PMC7115414 (European Journal of Medicinal Chemistry, 2017)

Assays:
[1] = molecular target: T1, SARS-CoV M^pro (Severe acute respiratory syndrome coronavirus, UniProt P0C6X7); assay: biochemical
[2] = molecular target: T1, SARS-CoV M^pro; assay type: biochemical

Work on `COC(=O)c1c[nH]c(SSc2ccccc2[N+](=O)[O-])n1` [Compound 3-14, Methyl 2-((2-nitrophenyl)disulfanyl)-1H-imidazole-4-carboxylate] yielded an IC50 [1] of 2.075 ± 0.016 µM.

In the case of `CCOC(=O)c1ccccc1SSc1nc(C(=O)OC)c[nH]1` [Compound 3-15, Methyl 2-((2-(ethoxycarbonyl)phenyl)disulfanyl)-1H-imidazole-4-carboxylate], the IC50 [1] is reported as 5.95 ± 0.363 µM.

`COC(=O)c1c[nH]c(SSc2ccccc2C(=O)OC)n1` [Compound 3-16, Methyl 2-((2-(methoxycarbonyl)phenyl)disulfanyl)-1H-imidazole-4-carboxylate] showed an IC50 [1] of 3.96 ± 0.19 µM.

`COC(=O)c1c[nH]c(SSc2ccc(Cl)cc2)n1` [Compound 3-17, Methyl 2-((4-chlorophenyl)disulfanyl)-1H-imidazole-4-carboxylate] showed an IC50 [1] of 4.13 ± 0.094 µM.

`Clc1ccc(SSc2nnco2)cc1` [Compound 3-31, 2-((4-chlorophenyl)disulfanyl)-1,3,4-oxadiazole] was tested, and the “inhibition type (reciprocal plots, velocity versus substrate concentration)” value [2] was “non-competitive inhibitor”, the “reversibility (plot of enzyme concentration versus reaction velocity)” value [2] was “reversible” and the “α (effect of inhibitor on the affinity of the enzyme for its substrate)” value [2] was less than 1.

With `Brc1ccc(SSc2ncccn2)cc1` [Compound 3-39, 2-((4-bromophenyl)disulfanyl)pyrimidine] the “inhibition type (reciprocal plots, velocity versus substrate concentration)” value [2] was “non-competitive inhibitor”, the “reversibility (plot of enzyme concentration versus reaction velocity)” value [2] was “reversible” and the “α (effect of inhibitor on the affinity of the enzyme for its substrate)” value [2] was less than 1.
